# According to ChEMBL document CHEMBL1201862, “PubChem BioAssay data set” (2004):
# Active and inactive are the calls of the source.
# Assays:
# [1] = biological target: Polyadenylate-binding protein 1 (Homo sapiens, UniProt P11940); assay: blockers of PABP interaction with poly(A) – biochemical, fluorescence polarization, […] (AID 2014)
# [2] = biological target: DNA dC->dU-editing enzyme APOBEC-3A (Homo sapiens, UniProt P31941); assay: Dose Response confirmation of small molecule APOBEC3A DNA Deaminase Inhibitors via a fluorescence-based single-stranded DNA deaminase assay. [Related pubchem assays (depositor defined):AID493011, AID493024]; format: functional
# Chain of DNA dC->dU-editing enzyme APOBEC-3A (P31941 whole entry): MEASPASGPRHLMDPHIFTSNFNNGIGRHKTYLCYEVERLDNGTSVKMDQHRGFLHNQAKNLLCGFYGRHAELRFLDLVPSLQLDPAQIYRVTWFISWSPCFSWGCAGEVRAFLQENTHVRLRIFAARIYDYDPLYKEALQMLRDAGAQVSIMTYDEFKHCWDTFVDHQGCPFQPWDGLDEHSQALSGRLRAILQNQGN
# [3] = biological target: Eukaryotic translation initiation factor 4H (Homo sapiens, UniProt Q15056); assay: eIF4H binding inhibition – biochemical, uHTS, fluorescence polarization, translation initiation inhibitor project, primary screen (AID 2012)
# [4] = biological target: DNA dC->dU-editing enzyme APOBEC-3G (Homo sapiens, UniProt Q9HC16); format: functional;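 also: Dose-response counterscreen measuring inhibition of APOBEC3G DNA deaminase activity, run while confirming APOBEC3A inhibitors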
# Chain of DNA dC->dU-editing enzyme APOBEC-3G (Q9HC16 whole entry): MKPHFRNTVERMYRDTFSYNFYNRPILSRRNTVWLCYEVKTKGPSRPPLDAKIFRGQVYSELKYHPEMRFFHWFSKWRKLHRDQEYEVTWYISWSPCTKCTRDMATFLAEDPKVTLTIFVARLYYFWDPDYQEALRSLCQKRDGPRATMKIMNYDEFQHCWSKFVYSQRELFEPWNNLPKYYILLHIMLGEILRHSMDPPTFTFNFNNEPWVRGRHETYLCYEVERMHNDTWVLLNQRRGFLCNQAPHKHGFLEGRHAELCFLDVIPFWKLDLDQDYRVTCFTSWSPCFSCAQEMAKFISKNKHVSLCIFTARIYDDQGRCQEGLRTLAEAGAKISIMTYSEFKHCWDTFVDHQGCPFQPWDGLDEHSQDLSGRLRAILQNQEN
# [5] = MIN6 cell viability loss – mouse insulinoma, cytotoxicity control, dose response (AID 2122); format: functional;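 also: confirmatory high-throughput counterscreen run to flag cytotoxic compounds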
# [6] = decrease of insulin promoter-GFP reporter – imaging, high-content screening, mouse beta cells (AID 1628); format: functional; settings: MIN6
# [7] = biological target: T1, Short transient receptor potential channel 4 (Mus musculus, UniProt Q9QUQ5); assay: block of DAMGO-driven TRPC4 calcium entry – cell-based, HEK293 TRPC4/mu-opioid, Fluo-4 calcium, dose response (AID 434942); format: functional;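 also: potency of inhibitors blocking the TRPC4 calcium response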
# T1 sequence (Q9QUQ5 whole entry): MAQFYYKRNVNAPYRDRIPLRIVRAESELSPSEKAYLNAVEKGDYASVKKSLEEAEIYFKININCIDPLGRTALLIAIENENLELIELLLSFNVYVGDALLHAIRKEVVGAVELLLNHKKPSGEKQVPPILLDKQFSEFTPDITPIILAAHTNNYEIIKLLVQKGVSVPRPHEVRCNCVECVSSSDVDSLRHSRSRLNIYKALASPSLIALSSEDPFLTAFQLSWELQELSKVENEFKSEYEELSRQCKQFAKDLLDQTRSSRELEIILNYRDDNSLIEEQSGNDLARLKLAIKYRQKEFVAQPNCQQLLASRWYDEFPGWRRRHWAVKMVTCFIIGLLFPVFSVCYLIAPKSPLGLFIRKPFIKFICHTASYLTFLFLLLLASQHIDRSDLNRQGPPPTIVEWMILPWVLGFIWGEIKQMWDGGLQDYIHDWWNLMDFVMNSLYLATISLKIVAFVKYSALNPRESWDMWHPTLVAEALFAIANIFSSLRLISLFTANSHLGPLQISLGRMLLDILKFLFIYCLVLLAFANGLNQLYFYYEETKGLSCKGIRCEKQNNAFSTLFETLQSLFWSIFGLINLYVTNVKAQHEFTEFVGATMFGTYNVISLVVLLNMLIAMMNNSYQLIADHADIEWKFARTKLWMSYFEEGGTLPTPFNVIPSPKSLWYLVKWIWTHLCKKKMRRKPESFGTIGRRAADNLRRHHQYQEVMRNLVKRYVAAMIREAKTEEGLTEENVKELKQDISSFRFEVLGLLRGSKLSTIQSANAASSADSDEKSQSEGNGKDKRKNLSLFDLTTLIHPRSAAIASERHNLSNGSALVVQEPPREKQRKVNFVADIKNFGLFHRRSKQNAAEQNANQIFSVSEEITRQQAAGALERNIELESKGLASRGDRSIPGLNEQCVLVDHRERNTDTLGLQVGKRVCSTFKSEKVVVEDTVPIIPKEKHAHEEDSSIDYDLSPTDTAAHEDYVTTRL
# [8] = biological target: T2, Heat shock factor protein 1 (Mus musculus, UniProt P38532); assay: enhancement of HSF1-driven luciferase signal – cell-based, NIH3T3, luminescence, dose retest, confirmation (AID 435004); format: functional;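 also: stress induced by proteasome inhibitor MG132 added 30 min after compound; luciferase reporter driven by HSF1 response element in NIH3T3 cells; actives raise luminescence as potentiators of the MG132 stress response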
# T2 sequence (P38532 whole entry): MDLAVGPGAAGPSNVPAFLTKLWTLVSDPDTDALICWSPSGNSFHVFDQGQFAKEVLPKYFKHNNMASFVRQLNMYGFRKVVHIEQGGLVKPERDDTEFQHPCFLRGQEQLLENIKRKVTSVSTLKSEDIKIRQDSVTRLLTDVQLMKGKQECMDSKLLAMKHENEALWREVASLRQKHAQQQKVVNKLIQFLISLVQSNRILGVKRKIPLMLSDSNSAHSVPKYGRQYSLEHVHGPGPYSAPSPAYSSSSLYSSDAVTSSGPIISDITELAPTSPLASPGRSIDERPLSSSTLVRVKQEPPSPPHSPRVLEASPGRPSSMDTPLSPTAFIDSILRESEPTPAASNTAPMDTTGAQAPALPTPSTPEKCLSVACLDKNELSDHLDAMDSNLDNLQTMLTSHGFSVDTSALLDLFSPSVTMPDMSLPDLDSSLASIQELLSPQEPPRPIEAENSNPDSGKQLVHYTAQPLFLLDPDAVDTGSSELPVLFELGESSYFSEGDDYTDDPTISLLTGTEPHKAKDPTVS
# [9] = biological target: T1, Short transient receptor potential channel 4; assay: SAR Analysis for the identification of selective inhibits of the transient receptor potential cation channel C4 (TRPC4): Automated Electrophysiology. [Related pubchem assays (depositor defined):AID2256]; format: functional
# [10] = restored growth of temperature-sensitive Burl-1 yeast – whole organism, S. cerevisiae, Burl-1 ts mutant, luminescence, counter-screen for SUMOylation pathway inhibitor project, dose response (AID 463199); format: functional
# [11] = biological target: T3, Replicative DNA helicase DnaB (Mycobacterium tuberculosis, UniProt P9WMR3); assay: DnaB intein splicing inhibitors, dose response, biochemical, cell-free fluorescence (AID 449749); format: functional
# T3 sequence (P9WMR3 whole entry): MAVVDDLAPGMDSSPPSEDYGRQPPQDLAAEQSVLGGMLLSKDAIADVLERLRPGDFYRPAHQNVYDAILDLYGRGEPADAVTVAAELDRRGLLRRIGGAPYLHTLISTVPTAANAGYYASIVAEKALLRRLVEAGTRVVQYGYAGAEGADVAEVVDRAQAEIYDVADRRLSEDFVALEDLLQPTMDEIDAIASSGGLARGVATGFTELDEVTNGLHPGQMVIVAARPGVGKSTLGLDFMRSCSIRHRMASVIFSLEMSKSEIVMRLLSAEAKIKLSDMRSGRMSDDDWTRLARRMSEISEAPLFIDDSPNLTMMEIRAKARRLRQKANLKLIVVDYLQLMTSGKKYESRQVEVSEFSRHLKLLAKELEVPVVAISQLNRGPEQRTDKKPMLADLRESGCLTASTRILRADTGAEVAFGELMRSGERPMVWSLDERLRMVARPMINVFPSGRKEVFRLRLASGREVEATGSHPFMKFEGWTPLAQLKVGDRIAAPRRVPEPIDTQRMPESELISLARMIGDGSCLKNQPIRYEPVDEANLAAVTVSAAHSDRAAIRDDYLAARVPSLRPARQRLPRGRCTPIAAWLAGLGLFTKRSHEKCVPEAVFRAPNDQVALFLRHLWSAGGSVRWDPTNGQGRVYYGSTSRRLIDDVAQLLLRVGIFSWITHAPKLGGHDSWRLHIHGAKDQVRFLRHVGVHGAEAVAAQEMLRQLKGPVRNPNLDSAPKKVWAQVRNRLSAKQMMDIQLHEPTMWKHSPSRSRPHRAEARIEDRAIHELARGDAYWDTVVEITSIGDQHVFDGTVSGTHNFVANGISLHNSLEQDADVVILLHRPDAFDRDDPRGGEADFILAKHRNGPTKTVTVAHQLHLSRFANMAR
# [12] = biological target: Lysine-specific demethylase 4A (Homo sapiens, UniProt O75164); assay: inhibition of JMJD2A H3K9me3 demethylation – biochemical, DELFIA europium, cherry-picked samples, selectivity assay for GASC-1 inhibitor project, dose response (AID 488840)
# Chain of Lysine-specific demethylase 4A (O75164 whole entry): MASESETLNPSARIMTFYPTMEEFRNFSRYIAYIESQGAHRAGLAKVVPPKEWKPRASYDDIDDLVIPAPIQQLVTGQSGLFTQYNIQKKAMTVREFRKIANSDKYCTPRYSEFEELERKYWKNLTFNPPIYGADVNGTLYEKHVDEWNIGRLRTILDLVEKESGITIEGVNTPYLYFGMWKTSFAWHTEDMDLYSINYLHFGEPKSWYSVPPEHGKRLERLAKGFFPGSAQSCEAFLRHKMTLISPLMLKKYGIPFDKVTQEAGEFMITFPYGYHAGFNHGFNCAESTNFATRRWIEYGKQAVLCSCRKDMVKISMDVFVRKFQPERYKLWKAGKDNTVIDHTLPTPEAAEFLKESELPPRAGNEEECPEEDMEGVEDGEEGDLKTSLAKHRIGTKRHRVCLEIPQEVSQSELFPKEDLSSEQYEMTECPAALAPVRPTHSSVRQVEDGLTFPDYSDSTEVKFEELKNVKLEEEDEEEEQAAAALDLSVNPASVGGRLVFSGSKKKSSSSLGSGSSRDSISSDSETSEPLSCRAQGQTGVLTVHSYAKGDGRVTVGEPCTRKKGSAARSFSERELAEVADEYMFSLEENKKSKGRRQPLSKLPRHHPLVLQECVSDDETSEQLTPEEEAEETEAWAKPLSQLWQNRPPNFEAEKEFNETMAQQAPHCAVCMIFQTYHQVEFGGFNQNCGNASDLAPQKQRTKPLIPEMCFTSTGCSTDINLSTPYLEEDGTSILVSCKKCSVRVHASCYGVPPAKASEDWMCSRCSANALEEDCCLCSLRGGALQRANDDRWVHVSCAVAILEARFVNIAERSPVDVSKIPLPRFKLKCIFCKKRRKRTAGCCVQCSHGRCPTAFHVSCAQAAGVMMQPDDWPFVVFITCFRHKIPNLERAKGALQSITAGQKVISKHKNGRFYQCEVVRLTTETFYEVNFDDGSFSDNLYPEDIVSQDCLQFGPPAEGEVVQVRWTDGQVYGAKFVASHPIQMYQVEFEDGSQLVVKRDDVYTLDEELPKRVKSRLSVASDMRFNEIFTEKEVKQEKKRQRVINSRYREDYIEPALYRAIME
# [13] = biological target: Lysine-specific demethylase 4C (Homo sapiens, UniProt Q9H3R0); assay: inhibition of JMJD2C H3K9me3 demethylation – biochemical, DELFIA europium, cherry-picked samples, dose response (AID 488835); format: functional
# [14] = biological target: T4, Protein RecA (Mycobacterium tuberculosis, UniProt P9WHJ3); assay: Fluorescence Cell-Free Homogeneous Dose Retest to Identify Inhibitors of RecA-Intein Splicing Activity. [Related pubchem assays (depositor defined):AID2097, AID2223, AID489010, AID492950]; format: functional
# T4 sequence (P9WHJ3 whole entry): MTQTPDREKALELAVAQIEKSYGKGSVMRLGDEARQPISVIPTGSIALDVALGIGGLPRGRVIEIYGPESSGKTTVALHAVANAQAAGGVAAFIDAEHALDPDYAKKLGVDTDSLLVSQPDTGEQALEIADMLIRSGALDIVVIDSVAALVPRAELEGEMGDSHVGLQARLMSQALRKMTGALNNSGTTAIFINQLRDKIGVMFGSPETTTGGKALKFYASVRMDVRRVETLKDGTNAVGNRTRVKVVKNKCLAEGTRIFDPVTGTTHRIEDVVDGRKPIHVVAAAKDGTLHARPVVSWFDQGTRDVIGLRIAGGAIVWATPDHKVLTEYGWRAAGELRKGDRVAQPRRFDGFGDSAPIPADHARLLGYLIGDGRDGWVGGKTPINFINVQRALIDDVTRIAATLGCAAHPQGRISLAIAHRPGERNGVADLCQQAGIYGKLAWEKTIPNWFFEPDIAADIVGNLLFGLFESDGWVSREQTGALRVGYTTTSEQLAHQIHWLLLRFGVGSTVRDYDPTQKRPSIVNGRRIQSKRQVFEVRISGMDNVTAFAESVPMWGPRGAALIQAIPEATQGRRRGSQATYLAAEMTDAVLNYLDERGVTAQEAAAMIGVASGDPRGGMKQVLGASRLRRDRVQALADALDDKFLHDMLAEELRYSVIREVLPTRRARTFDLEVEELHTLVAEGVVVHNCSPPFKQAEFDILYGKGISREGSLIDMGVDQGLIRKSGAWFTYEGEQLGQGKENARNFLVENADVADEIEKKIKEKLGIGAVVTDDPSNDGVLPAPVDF
# [15] = biological target: T5, Alkaline phosphatase, tissue-nonspecific isozyme (Homo sapiens, UniProt P05186); assay: inhibition of tissue-nonspecific alkaline phosphatase – biochemical, dose response (AID 488882); format: functional
# T5 sequence (P05186 whole entry): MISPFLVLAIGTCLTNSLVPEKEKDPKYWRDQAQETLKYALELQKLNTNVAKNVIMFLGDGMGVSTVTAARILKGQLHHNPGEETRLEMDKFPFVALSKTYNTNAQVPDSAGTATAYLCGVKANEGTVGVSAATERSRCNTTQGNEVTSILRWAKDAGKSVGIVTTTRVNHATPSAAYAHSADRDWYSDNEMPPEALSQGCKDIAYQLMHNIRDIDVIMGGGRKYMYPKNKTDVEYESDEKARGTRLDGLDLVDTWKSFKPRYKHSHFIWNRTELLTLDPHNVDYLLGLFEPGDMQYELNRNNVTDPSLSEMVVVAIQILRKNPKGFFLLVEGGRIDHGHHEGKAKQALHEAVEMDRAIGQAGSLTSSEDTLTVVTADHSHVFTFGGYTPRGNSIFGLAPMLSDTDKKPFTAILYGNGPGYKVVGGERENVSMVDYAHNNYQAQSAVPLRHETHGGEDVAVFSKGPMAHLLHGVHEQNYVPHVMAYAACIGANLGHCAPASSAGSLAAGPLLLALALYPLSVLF
# [16] = biological target: T6, Cytochrome P450 1A2 (Homo sapiens, UniProt P05177);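 also: PubChem cytochrome P450 panel assay, CYP1A2 panel member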
# T6 sequence (P05177 whole entry): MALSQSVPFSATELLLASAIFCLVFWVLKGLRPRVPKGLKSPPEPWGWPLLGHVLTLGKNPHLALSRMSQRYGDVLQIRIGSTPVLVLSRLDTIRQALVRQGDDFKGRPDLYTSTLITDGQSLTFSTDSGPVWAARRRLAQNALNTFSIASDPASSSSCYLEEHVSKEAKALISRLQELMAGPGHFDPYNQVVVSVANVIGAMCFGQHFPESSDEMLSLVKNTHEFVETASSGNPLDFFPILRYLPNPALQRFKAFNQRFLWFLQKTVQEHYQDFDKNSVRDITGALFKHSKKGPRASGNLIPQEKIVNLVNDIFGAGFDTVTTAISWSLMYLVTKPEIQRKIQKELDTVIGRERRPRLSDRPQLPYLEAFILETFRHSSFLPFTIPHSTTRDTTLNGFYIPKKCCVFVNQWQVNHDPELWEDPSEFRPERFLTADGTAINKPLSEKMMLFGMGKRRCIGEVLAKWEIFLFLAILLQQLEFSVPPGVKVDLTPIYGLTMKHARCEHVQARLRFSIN
# [17] = biological target: T7, Intestinal-type alkaline phosphatase (Homo sapiens, UniProt P09923); assay: activation of human intestinal alkaline phosphatase – biochemical, dose response (AID 488873); format: functional
# T7 sequence (P09923 whole entry): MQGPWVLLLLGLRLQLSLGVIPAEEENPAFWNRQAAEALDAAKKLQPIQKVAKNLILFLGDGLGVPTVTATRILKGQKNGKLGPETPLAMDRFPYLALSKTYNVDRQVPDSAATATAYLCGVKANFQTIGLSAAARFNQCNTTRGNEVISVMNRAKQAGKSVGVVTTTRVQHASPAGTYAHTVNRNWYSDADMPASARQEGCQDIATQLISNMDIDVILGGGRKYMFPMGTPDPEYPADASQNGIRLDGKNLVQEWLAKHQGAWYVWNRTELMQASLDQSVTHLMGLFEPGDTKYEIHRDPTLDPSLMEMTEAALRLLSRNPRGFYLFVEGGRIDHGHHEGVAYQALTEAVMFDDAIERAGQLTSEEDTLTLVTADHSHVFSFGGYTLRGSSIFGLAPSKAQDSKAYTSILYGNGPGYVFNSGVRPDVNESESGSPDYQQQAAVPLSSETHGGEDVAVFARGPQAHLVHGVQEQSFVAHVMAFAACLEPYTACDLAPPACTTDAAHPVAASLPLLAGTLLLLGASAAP
# [18] = biological target: T8, Intestinal-type alkaline phosphatase (Mus musculus, UniProt P24822); assay: PubChem AID 488785; format: functional
# T8 sequence (P24822 whole entry): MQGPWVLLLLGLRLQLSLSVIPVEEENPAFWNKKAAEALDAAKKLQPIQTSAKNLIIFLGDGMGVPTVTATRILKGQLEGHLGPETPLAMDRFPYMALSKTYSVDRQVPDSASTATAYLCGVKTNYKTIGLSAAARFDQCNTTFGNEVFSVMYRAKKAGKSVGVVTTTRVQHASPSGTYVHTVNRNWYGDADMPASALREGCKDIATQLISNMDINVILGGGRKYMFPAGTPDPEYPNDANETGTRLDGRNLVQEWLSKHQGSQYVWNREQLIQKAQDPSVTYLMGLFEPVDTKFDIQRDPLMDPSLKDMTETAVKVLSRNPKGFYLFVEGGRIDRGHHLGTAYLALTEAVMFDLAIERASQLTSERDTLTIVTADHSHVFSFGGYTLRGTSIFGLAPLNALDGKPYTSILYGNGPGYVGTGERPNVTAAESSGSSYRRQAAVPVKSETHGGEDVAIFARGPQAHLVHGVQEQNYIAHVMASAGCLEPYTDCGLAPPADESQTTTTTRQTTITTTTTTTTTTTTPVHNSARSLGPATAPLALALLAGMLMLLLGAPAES
# [19] = biological target: Large T antigen (Simian virus 40, UniProt P03070); format: functional, Betapolyomavirus macacae;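 also: Confirmatory-stage PubChem screen for compounds that inhibit SV40 T antigen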
# Chain of Large T antigen (P03070 whole entry): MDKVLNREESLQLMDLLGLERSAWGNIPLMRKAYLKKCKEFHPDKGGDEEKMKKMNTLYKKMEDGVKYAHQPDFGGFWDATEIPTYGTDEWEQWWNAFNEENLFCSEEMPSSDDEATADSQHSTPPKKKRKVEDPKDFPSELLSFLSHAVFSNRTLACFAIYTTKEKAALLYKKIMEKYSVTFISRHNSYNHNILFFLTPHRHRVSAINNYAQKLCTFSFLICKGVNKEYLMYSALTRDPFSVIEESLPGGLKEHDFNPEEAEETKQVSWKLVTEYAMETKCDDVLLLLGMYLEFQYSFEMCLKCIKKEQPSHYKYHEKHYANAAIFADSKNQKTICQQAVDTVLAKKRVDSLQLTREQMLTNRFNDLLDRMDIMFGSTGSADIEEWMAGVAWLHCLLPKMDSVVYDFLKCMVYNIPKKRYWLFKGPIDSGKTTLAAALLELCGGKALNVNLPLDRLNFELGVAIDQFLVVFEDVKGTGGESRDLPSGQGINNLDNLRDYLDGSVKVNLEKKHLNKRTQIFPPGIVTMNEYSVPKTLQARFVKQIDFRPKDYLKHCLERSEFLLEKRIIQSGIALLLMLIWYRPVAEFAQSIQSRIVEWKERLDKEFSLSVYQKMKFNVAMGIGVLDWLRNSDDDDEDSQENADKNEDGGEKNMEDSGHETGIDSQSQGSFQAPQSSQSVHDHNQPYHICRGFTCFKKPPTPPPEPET
# [20] = biological target: T5, Alkaline phosphatase, tissue-nonspecific isozyme; assay: TNAP enzyme inhibition by screening hits, dose response, selectivity assay for mouse IAP inhibitor project, biochemical, human TNAP, uHTS hits (AID 488906); format: functional
# [21] = biological target: T7, Intestinal-type alkaline phosphatase; assay: inhibition of human intestinal alkaline phosphatase – biochemical, luminescent, uHTS hits, set 2, dose response (AID 488793); format: functional
# [22] = biological target: T7, Intestinal-type alkaline phosphatase; assay: Dose Response confirmation of uHTS hits from a small molecule inhibitors of human intestinal alkaline phosphatase via a luminescent assay. [Related pubchem assays (depositor defined):AID2544, AID2574]; format: functional
# [23] = biological target: T8, Intestinal-type alkaline phosphatase; assay: PubChem AID 488874; format: functional
# Chain of Polyadenylate-binding protein 1 (P11940 whole entry): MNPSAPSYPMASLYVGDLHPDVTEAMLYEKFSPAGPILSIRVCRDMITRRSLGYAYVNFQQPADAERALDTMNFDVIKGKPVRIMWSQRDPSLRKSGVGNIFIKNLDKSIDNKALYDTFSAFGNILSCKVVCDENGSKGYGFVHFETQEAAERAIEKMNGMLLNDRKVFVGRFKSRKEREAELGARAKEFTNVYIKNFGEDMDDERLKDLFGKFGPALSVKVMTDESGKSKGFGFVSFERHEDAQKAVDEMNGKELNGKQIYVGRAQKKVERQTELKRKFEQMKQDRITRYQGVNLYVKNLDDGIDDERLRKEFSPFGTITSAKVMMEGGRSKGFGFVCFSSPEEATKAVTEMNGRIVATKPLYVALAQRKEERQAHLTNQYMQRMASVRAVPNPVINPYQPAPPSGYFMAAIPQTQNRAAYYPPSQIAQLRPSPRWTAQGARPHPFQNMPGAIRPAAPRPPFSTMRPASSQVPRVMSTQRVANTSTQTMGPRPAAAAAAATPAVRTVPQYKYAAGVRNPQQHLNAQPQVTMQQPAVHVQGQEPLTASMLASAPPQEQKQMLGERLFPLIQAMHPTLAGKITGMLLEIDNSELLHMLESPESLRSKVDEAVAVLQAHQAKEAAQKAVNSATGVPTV
smiles,measurement,setting,value
CCCCCn1ccc(=N)cc1,IC50,[1],2.73 µM (active)
same,IC50,[2],1.3 µM (active)
same,IC50,[3],> 100 µM (inactive)
same,IC50,[4],1.92 µM (active)
same,IC50,[5],2.58 µM (active)
same,IC50,[6],3.31 µM (active)
COc1ccc2c(C)cc(N3CCCCCC3)nc2c1,EC50,[7],531 nM (active)
same,EC50,[8],> 260 µM (inactive)
same,IC50,[9],2.38 µM (active)
COc1ccc2[nH]cc(C(=O)C(=O)N3CCCCC3)c2c1,AC50,[10],93.6 µM (active)
O=c1[nH]cc(/N=C/c2cc(Cl)cc(Cl)c2O)c(=O)[nH]1,AC50,[11],4.92 µM (active)
same,AC50,[12],18.1 µM (active)
same,AC50,[13],749 nM (active)
same,EC50,[14],4.14 µM (active)
N#C/C(=C\c1ccc(O)c(O)c1)C(=O)c1ccc(O)c(O)c1,IC50,[15],9.49 µM (active)
same,AC50,[16],31.6 µM (inconclusive)
same,EC50,[17],6.36 µM (active)
same,IC50,[18],7.13 µM (active)
same,IC50,[19],820 nM (active)
same,IC50,[20],> 100 µM (inactive)
same,IC50,[21],2.68 µM (active)
same,IC50,[22],4.41 µM (active)
same,IC50,[23],259 nM (active)
